Measurements published in patent US8889705B2, “Noscapine analogs and their use in treating cancers” (Emory University, priority 2007, dated 2014).
Blank lines part the entries; values can stand above or below the compound they belong to.

How the values were obtained:
CEM/VM-1-5 cells = details: CEM/VM-1-5 (Morgan et al., 2000); cited from earlier work
CEM/VLB100 cells = details: CEM/VLB100 (Beck and Cirtain, 1982); cited from earlier work
MDA-MB-231 cells = experiment: Sulforhodamine B cell proliferation assay; format: cell-based; details: Homo sapiens; MDA-MB-231, 72 hours, SRB
Method: (§1) Sulforhodamine B (SRB) assay: The cell proliferation assay was performed in 96-well plates as described previously. Adherent cells (MCF-7 and MDA-MB-231) were seeded in 96-well plates at a density of 5×10^3 cells per well. They were treated with increasing concentrations of the halogenated analogs the next day while in log-phase growth. After 72 hours of drug treatment, cells were fixed with 50% trichloroacetic acid and stained with 0.4% sulforhodamine B dissolved in 1% acetic acid. After 30 minutes, cells were then washed with 1% acetic acid to remove the unbound dye. The protein-bound dye was extracted with 10 mM Tris base to determine the optical density at 564-nm wavelength.

MCF-7 cells [1] = experiment: Cell cycle analysis (propidium iodide, flow cytometry); format: cell-based, human; details: MCF-7, 25 μM, mean ± S.E.M.
Method: The flow cytometric evaluation of the cell cycle status was performed as described previously. Briefly, 2×10^6 cells were centrifuged, washed twice with ice-cold PBS, and fixed in 70% ethanol. Tubes containing the cell pellets were stored at 4° C. for at least 24 hours. Cells were then centrifuged at 1000×g for 10 min and the supernatant was discarded. The pellets were washed twice with 5 ml of PBS and then stained with 0.5 ml of propidium iodide (0.1% in 0.6% Triton-X in PBS) and 0.5 ml of RNase A (2 mg/ml) for 45 minutes in dark. Samples were then analyzed on a FACSCalibur flow cytometer (Beckman Coulter Inc., Fullerton, Calif.).

CEM cells = experiment: In vitro cell proliferation MTS assay; format: cell-based; details: Homo sapiens, CCRF-CEM, 72 hours
Method: (§2) Suspension cells (CEM, CEMNLB100 and CEM/VM-1-5) were cultured in RPMI-1640 media containing 10% FBS and then seeded into 96-well plates at a density of 5×10^3 cells per well and were treated with increasing gradient concentrations of 9-nitro-nos for 72 hours. Measurement of cell proliferation was performed colorimetrically by 3-(4,5-dimethylthiazol-2-yl)-5-(3-carboxymethoxyphenyl)-2-(4-sulphophenyl)-2H-tetrazolium, inner salt (MTS) assay, using the CellTiter96 AQueous One Solution Reagent (Promega, Madison, Wis.). Cells were exposed to MTS for 3 hours and absorbance was measured using a microplate reader (Molecular Devices, Sunnyvale, Calif.) at an optical density (OD) of 490 nm. The percentage of cell survival as a function of drug concentration for both the assays was then plotted to determine the IC50 value, which stands for the drug concentration needed to prevent cell proliferation by 50%.
as §2, with “(CEM)” for “(CEM, CEMNLB100 and CEM/VM-1-5)”, “were” for “were cultured in RPMI-1640 media containing 10% FBS and then”, “increasing” for “increasing gradient”, “all halogenated analogs” for “9-nitro-nos”

tubulin [2] = target: T1, tubulin; details: values with literature reference [18], [12], [43]; read-out: dissociation constant (Kd) for binding to tubulin; cited from earlier work
T1 construct: other: 2 μM tubulin, 45 min at 37° C., double reciprocal plot; rate and extent of tubulin polymerization; other: 25 μM or 100 μM

MCF-7 cells [3] = experiment: Sulforhodamine B cell proliferation assay; format: cell-based, human; details: Homo sapiens, MCF7, 72 h, MCF-7, 72 hours, SRB
Method: as §1

tubulin [4] = details: even at 100 μM (Zhou et al., 2003); cited from earlier work

SMILES: COc1cc([C@@H]2c3cc4c(cc3[C@@H](O[C@@H]3O[C@@H]5CO[C@@H](c6cccs6)O[C@H]5[C@H](O)[C@H]3O)[C@H]3COC(=O)[C@H]23)OCO4)cc(OC)c1O [teniposide]
- resistance to teniposide (CEM/VM-1-5 cells): 400 fold

SMILES: CC[C@]1(O)C[C@@H]2CN(CCc3c([nH]c4ccccc34)[C@@](C(=O)OC)(c3cc4c(cc3OC)N(C)[C@H]3[C@@](O)(C(=O)OC)[C@H](OC(C)=O)[C@]5(CC)C=CCN6CC[C@]43[C@@H]65)C2)C1 [vinblastine]
- resistance to vinblastine (CEM/VLB100 cells): 270 fold

- IC50 (MDA-MB-231 cells): 36.3 ± 1.8 µM
- IC50 (MCF-7 cells [3]): 39.6 ± 2.2 µM
SMILES: COc1ccc2c(c1OC)C(=O)O[C@@H]2[C@H]1c2c(cc3c(c2OC)OCO3)CCN1C [Nos, (S)-6,7-dimethoxy-3-((R)-4-methoxy-6-methyl-5,6,7,8-tetrahydro[1,3]-dioxolo-[4,5-g]isoquinolin-5-yl)isobenzo-furan-1(3H)-one, reference compound]
- G0/G1 (MCF-7 cells [1]; 0 h): 54.8 ± 0.03%
- G2/M (MCF-7 cells [1]; 0 h): 29.9 ± 2.2%
- S (MCF-7 cells [1]; 0 h): 13.2 ± 0.2%
- Sub-G1 (MCF-7 cells [1]; 0 h): 0.2 ± 0.03%
- G0/G1 (MCF-7 cells [1]; 24 h): 18.3 ± 3.3%
- G2/M (MCF-7 cells [1]; 24 h): 50.2 ± 3.6%
- S (MCF-7 cells [1]; 24 h): 3.4 ± 0.8%
- Sub-G1 (MCF-7 cells [1]; 24 h): 10.2 ± 1.2%
- G0/G1 (MCF-7 cells [1]; 48 h): 19.8 ± 1.9%
- G2/M (MCF-7 cells [1]; 48 h): 28.07 ± 0.2%
- S (MCF-7 cells [1]; 48 h): 4.1 ± 0.6%
- Sub-G1 (MCF-7 cells [1]; 48 h): 36.8 ± 3.7%
- G0/G1 (MCF-7 cells [1]; 72 h): 20.5 ± 0.2%
- G2/M (MCF-7 cells [1]; 72 h): 26.3 ± 0.2%
- S (MCF-7 cells [1]; 72 h): 7.06 ± 0.2%
- Sub-G1 (MCF-7 cells [1]; 72 h): 36.9 ± 0.2%
- IC50 (CEM cells): 16.6 ± 2.4 µM
- Kd (tubulin [2]): 144 ± 2.8 µM
- microtubule polymerization upon binding tubulin (tubulin [4]): does not significantly promote or inhibit microtubule polymerization
